The source of these data is ChEMBL document CHEMBL5715954, “Silencing c-Myc translation as a therapeutic strategy through targeting PI3Kδ and CK1ε in hematological malignancies” (Blood, 2017).

As a reminder, the inhibition is the change of the read-out against control, counted positive when it falls.

Active and inactive are the calls of the source. The rule behind the calls is not given here.

The target in test [1] is T1, mTORC1 (Homo sapiens) (UniProt P42345+Q8N122+Q9BVC4). The test is described as follows: Inhibition of mTORC1 in human LY7 cells assessed as reduction in c-Myc expression at 3 uM measured after 24 hrs in presence of bortezomib by Western blot analysis. It is filed as cell-based. (A western blot detects proteins with antibodies after separation by electrophoresis.)
Test [2] addresses T1, mTORC1 (Homo sapiens). The test is described as follows: Inhibition of mTORC1 in human CLL cells assessed as reduction in 4E-BP1 phosphorylation at 5 uM measured after 24 hrs in presence of bortezomib by Western blot analysis. Type of test: cell-based. To be noted: CLL cell.
Test [3] concerns the target Myc proto-oncogene protein (Homo sapiens) (UniProt P01106). Kind of test: Inhibition of c-Myc in human LY10 cells assessed as reduction in eIF4B expression at 3 uM incubated for 24 hrs in presence of bortezomib by Western blot analysis. Type of test: cell-based.
In test [4] the target is T1, mTORC1 (Homo sapiens). Kind of test: Inhibition of mTORC1 in human LY7 cells assessed as reduction in c-Myc mRNA expression at 3 uM measured after 24 hrs in presence of bortezomib. Type of test: cell-based.
Test [5] has as its system CLL cell. Kind of test: Induction of apoptosis in human CLL cells assessed as increase in cleaved-PARP expression at 5 uM measured after 24 hrs in presence of bortezomib by Western blot analysis. It is filed as functional, cell-based.
Test [6] deals with T1, mTORC1 (Homo sapiens). The test is described as follows: Inhibition of mTORC1 in human LY10 cells assessed as reduction in 4E-BP1 phosphorylation at 3 uM measured after 24 hrs in presence of bortezomib by Western blot analysis. Type of test: cell-based.
Test [7] has as its target T1, mTORC1 (Homo sapiens). The test is described as follows: Inhibition of mTORC1 in human SLL cells assessed as reduction in c-Myc expression at 5 uM measured after 24 hrs in presence of carfilzomib by Western blot analysis. It is filed as cell-based.
Test [8] deals with OCILY7. The test is described as follows: Inhibition of PI3Kdelta/CK1epsilon in human OCILY7 cells transfected with c-Myc-expressing plasmid (M+) assessed as reduction in c-Myc expression at 7.5 to 25 uM measured after 24 hrs by Western blot analysis. It is filed as cell-based. To be noted: dose 7.5-25 µM.
Test [9] addresses T2, Phosphatidylinositol 4,5-bisphosphate 3-kinase catalytic subunit delta isoform (Homo sapiens) (UniProt O00329).
T2 sequence (whole entry): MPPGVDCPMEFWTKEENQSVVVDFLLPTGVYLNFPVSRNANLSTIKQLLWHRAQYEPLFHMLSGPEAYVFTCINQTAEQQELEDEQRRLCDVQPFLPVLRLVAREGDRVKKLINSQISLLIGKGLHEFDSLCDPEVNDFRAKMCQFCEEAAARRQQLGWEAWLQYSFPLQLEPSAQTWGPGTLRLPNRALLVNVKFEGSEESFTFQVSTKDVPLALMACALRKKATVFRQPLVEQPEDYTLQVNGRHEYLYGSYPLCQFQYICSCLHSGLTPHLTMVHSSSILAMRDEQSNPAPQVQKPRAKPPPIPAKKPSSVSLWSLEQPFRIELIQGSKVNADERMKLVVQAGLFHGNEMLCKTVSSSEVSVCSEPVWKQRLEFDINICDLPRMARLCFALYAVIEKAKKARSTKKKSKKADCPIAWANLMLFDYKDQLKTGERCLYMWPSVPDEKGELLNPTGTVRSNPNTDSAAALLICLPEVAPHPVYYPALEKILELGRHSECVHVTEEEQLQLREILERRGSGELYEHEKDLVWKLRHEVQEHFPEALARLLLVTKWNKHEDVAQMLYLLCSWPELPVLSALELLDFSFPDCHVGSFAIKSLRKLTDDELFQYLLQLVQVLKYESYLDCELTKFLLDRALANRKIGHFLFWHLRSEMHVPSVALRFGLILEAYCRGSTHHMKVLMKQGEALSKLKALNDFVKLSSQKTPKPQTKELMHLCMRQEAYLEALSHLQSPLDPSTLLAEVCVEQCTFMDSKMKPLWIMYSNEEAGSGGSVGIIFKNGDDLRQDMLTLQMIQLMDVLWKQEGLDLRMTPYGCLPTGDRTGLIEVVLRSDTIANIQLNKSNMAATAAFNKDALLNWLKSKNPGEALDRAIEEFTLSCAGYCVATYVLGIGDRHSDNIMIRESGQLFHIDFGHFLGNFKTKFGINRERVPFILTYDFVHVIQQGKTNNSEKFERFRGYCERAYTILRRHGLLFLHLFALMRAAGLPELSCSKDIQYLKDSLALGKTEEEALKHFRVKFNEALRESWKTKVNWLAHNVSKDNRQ
The test is described as follows: Inhibition of PI3Kdelta in human THP-1 cells assessed as reduction in AKT phosphorylation at S473 residue measured after 4 hrs. To be noted: dose 10-10000 nM. Type of test: cell-based.

Test [10] has as its target T1, mTORC1 (Homo sapiens). Kind of test: Inhibition of mTORC1 in human NCI-H929 cells transduced with an eIF4E-overexpressing plasmid assessed as reduction in eIF4E expression at 5 uM incubated for 24 hrs in presence of carfilzomib by Western blot analysis. It is filed as cell-based.
Test [11] deals with T1, mTORC1 (Homo sapiens). Kind of test: Inhibition of mTORC1 in human OCILY7 cells transfected with empty vector assessed as reduction in endogenous c-Myc expression at 3 to 5 uM incubated for 24 hrs in presence of carfilzomib by Western blot analysis. To be noted: dose 3-5 µM. Type of test: cell-based.
For test [12], the target named is T1, mTORC1 (Homo sapiens). Kind of test: Inhibition of mTORC1 in human PF-382 cells assessed as reduction in c-Myc expression at 5 uM measured after 24 hrs in presence of carfilzomib by Western blot analysis. Type of test: cell-based.
Test [13] concerns the target T2, Phosphatidylinositol 4,5-bisphosphate 3-kinase catalytic subunit delta isoform (Homo sapiens). Kind of test: Inhibition of PI3Kdelta in human MOLT-4 cells assessed as reduction in AKT phosphorylation at S473 residue at 1 uM measured after 4 hrs relative to control. Type of test: cell-based.
Test [14] relates to LY7. Kind of test: Inhibition of PI3Kdelta/CK1epsilon in human LY7 cells assessed as reduction in c-Myc expression at 25 uM incubated for 24 hrs by Western blot analysis. Type of test: cell-based.
Test [15] has as its target T1, mTORC1 (Homo sapiens). The test is described as follows: Inhibition of mTORC1 in human NCI-H929 cells assessed as reduction in c-Myc expression at 5 uM measured after 24 hrs by Western blot analysis. It is filed as cell-based.
In test [16] the test system is OCI-Ly7. Kind of test: Cytotoxicity against human OCILY7 cells transfected with empty vector assessed as reduction in cell viability at 7.5 to 25 uM incubated for 24 hrs by cell-titer glo assay. Type of test: functional, cell-based. Conditions: dose 7.5-25 µM.
Test [17] concerns the target T2, Phosphatidylinositol 4,5-bisphosphate 3-kinase catalytic subunit delta isoform (Homo sapiens). The test is described as follows: Inhibition of PI3Kdelta in human MOLT-4 cells assessed as reduction in AKT phosphorylation at S473 residue measured after 4 hrs. Type of test: cell-based. To be noted: dose 10-10000 nM.
The target of test [18] is Myc proto-oncogene protein (Homo sapiens) (UniProt P01106). The test is described as follows: Inhibition of c-Myc in human LY10 cells assessed as reduction in eIF4B expression at 3 uM incubated for 24 hrs in presence of carfilzomib by Western blot analysis. It is filed as cell-based.
Test [19] addresses T1, mTORC1 (Homo sapiens). Kind of test: Inhibition of mTORC1 in human NCI-H929 cells transduced with an eIF4E-overexpressing plasmid assessed as reduction in c-Myc expression at 5 uM incubated for 24 hrs in presence of carfilzomib by Western blot analysis. Type of test: cell-based.
Test [20] addresses T1, mTORC1 (Homo sapiens). Kind of test: Inhibition of mTORC1 in human LY7 cells assessed as reduction in c-Myc expression at 3 uM measured after 24 hrs in presence of carfilzomib by Western blot analysis. It is filed as cell-based.
The target in test [21] is T1, mTORC1 (Homo sapiens). The test is described as follows: Inhibition of mTORC1 in human SLL cells assessed as reduction in 4E-BP1 phosphorylation at 5 uM measured after 24 hrs in presence of carfilzomib by Western blot analysis. It is filed as cell-based.

T1 sequence (Q8N122 whole entry, looked up, other chains not shown): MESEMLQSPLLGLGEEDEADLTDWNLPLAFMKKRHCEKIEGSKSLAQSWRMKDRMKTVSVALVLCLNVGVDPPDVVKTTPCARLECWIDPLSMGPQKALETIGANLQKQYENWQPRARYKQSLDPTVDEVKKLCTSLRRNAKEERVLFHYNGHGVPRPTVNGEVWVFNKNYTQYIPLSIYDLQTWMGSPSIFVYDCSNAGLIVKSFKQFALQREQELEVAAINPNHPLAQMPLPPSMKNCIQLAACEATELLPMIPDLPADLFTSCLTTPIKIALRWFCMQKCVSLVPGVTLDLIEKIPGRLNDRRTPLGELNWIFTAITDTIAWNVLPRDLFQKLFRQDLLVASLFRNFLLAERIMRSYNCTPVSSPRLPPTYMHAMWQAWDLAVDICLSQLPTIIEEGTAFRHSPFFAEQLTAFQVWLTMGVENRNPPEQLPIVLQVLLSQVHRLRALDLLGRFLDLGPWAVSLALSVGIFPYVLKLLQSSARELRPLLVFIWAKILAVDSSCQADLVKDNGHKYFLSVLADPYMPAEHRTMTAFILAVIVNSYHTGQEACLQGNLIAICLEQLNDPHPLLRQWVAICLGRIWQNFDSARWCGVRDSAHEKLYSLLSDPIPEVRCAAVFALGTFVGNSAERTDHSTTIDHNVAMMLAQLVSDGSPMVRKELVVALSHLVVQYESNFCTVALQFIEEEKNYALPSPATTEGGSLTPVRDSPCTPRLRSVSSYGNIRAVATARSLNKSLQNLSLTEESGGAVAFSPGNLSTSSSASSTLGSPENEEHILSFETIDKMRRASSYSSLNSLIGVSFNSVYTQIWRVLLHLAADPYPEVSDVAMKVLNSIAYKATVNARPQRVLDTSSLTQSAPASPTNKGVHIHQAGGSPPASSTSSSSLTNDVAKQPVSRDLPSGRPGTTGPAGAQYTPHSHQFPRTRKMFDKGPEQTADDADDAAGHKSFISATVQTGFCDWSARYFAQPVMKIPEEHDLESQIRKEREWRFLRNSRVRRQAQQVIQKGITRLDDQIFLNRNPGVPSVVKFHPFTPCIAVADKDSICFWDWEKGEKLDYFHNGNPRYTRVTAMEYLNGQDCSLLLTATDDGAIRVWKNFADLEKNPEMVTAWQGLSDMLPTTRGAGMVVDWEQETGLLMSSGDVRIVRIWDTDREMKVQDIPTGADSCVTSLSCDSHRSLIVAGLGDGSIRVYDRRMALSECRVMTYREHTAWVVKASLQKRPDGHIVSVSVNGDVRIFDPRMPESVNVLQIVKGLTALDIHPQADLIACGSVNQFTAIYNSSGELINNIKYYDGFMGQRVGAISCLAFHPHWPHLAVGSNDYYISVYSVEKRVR
T1 sequence (Q9BVC4 whole entry, looked up, other chains not shown): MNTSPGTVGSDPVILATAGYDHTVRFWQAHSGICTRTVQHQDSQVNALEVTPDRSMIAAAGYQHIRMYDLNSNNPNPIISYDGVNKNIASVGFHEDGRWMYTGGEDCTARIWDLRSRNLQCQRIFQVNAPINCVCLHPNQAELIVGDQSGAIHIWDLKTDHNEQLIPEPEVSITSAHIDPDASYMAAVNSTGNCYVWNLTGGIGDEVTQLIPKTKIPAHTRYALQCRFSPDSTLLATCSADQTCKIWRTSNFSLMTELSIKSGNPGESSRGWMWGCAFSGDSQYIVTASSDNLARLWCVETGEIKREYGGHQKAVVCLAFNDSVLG
Sequence of Myc proto-oncogene protein (Homo sapiens) (P01106 whole entry): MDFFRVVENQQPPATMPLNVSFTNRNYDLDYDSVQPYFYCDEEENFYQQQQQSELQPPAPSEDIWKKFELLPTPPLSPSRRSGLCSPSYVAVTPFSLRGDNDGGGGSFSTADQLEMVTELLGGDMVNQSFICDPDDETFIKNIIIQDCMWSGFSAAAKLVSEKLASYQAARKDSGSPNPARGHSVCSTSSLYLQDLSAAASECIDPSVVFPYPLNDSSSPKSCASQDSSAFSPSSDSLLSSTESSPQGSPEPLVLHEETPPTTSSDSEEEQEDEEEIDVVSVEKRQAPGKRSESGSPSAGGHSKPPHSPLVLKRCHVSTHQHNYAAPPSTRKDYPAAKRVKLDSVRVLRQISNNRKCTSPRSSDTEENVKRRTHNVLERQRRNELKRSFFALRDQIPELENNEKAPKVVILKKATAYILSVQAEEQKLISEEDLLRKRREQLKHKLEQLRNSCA

Take `CC[C@H](Nc1ncnc2[nH]cnc12)c1nc2cccc(F)c2c(=O)n1-c1ccccc1`: the inhibition entry in test [1], in [2], in [3], in test [4] and in [6] was “inactive” throughout. Further, the outcome in [5] was Active.

Take `CC(C)Oc1ccc(-c2nn([C@@H](C)c3oc4ccc(F)cc4c(=O)c3-c3cccc(F)c3)c3ncnc(N)c23)cc1F` [UMBRALISIB]: the inhibition result in test [7], in test [11], in test [12], in test [14], in test [18] and in test [20] was “Active” each time. Moreover, the inhibition entry in test [21] is “Active”. In addition, the inhibition result in [8], in [10], in test [15] and in test [19] was “inactive” each time. Besides, the inhibition result in test [9] was “Dose-Dependent Effect”; in test [13] it was 43%; in test [17], “Dose-Dependent Effect”. The result in test [16] was Active.
